Data on twelve molecules can be found in ChEMBL document CHEMBL1201862, “PubChem BioAssay data set” (2004).

Calls of active or inactive are those of the source. Where only a bound is given, the exact number is not on record here.

One assay has as its target T1, Leucine aminopeptidase (Plasmodium falciparum 3D7, UniProt Q8IL11).
T1 sequence (Q8IL11 whole entry): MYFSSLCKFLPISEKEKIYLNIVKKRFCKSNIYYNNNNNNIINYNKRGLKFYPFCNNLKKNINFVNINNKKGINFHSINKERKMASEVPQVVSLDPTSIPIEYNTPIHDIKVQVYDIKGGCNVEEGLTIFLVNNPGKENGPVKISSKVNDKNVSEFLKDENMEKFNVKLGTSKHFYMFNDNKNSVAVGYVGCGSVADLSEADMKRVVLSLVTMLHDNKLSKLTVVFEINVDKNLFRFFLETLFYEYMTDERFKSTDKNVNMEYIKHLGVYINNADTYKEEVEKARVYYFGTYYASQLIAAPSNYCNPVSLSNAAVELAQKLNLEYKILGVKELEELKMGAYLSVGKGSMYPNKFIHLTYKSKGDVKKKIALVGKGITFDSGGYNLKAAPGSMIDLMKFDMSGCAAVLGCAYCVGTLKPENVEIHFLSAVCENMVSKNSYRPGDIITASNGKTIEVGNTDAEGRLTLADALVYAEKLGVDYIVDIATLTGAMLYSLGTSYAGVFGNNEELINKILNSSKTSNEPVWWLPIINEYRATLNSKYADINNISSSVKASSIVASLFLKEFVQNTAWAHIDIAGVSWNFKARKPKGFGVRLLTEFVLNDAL
The experiment in a line: P. falciparum M17LAP inhibitors, primary screen, biochemical, fluorogenic H-Leu-NHMec substrate, 1536-well (AID 1619). The assay is classed as functional.

Assay [1] has as its target T2, Histone-lysine N-methyltransferase NSD2 (Homo sapiens, UniProt O96028).
T2 sequence (O96028 whole entry): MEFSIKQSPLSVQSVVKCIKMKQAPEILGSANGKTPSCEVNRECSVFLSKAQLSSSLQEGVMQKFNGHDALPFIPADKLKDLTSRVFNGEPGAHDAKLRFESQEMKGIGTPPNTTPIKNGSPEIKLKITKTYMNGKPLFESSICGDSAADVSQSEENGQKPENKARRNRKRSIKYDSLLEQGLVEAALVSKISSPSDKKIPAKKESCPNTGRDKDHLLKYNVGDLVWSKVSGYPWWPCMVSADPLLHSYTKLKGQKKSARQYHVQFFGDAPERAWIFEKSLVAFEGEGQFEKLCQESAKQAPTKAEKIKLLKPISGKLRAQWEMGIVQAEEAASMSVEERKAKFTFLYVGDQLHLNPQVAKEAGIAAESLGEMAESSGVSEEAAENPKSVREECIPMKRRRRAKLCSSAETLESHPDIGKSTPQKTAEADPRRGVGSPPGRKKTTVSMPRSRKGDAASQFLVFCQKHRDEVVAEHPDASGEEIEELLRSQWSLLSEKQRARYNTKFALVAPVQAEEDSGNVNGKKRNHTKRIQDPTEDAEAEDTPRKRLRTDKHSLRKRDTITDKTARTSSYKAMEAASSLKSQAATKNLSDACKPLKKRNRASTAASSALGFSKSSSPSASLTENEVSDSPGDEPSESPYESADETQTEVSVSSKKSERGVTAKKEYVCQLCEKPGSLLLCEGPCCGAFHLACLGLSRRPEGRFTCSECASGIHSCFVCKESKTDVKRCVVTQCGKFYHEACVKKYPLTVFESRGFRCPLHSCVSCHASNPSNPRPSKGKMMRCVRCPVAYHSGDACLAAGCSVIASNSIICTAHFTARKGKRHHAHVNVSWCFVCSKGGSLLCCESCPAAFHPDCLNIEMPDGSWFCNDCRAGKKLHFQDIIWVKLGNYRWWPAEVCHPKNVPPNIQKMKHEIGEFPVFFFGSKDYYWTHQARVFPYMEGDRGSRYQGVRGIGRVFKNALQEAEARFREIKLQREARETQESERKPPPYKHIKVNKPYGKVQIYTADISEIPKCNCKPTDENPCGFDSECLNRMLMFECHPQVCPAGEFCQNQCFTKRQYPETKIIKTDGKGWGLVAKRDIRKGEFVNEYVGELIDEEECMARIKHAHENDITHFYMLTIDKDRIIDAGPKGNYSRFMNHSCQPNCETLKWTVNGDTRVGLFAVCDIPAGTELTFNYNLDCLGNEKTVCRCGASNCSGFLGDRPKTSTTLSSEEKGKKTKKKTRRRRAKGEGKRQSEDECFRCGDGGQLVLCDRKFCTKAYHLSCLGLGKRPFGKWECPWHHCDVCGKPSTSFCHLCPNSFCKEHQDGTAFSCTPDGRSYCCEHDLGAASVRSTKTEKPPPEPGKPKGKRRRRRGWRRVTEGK
It is filed as biochemical.

The target in the next assay is Prothrombin (Homo sapiens, UniProt P00734). In words: Thrombin 1536 HTS Dose Response Confirmation. [Related pubchem assays: 1046 (Thrombin 1536 HTS; hits were confirmed in this assay)]. It is filed as functional.
Assay [2] in a line: LGR2 antagonists, dose response, cell-based, HEK293, CRE-luciferase reporter, cherry pick, set 2 (AID 743343).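 Further: transfected cells were stimulated with diluted bursicon conditioned medium after compound addition.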 It is filed as functional. Background: In a reporter assay the amount or activity of a reporter protein is the signal.
Assay [3] concerns the target T3, Heat shock factor protein 1 (Mus musculus, UniProt P38532).
T3 sequence (P38532 whole entry): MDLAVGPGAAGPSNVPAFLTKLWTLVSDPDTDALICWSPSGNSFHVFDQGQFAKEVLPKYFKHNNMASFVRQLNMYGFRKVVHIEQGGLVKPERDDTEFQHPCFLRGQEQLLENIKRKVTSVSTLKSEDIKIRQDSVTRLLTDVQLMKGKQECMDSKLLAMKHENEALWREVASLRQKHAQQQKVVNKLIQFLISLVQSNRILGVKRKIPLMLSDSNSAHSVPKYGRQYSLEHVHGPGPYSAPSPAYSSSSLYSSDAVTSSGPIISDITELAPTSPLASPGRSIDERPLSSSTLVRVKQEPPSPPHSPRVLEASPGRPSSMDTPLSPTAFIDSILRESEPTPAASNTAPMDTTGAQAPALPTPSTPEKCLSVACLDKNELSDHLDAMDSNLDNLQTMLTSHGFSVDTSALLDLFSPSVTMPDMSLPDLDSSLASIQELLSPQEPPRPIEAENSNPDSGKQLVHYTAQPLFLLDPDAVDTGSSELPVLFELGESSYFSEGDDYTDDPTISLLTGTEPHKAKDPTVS
In words: inhibition of MG132-induced HSE-luciferase signal, confirmation, cell-based, NIH3T3, luminescence, dose retest (AID 2382).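 Further: NIH3T3 fibroblasts with HSF1-driven luciferase reporter stressed by proteasome inhibitor MG132; luminescence from HSF1-driven luciferase expression after 8 hours of MG132 stress.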 The assay is classed as functional.

A short description of assay [4]: MC4R antagonists, dose response, counter-screen for LGR2 antagonist project, cell-based, plate reader, cherry pick (AID 743444).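 Further: transfected HEK 293 cells stimulated with alpha-MSH peptide; potency of inhibitors of the alpha-MSH evoked signal.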 It is filed as functional. On the technique in general: Counterscreens check selectivity or assay interference.
A further assay addresses T4, Protein skinhead-1 (Caenorhabditis elegans, UniProt P34707).
T4 sequence (P34707 whole entry): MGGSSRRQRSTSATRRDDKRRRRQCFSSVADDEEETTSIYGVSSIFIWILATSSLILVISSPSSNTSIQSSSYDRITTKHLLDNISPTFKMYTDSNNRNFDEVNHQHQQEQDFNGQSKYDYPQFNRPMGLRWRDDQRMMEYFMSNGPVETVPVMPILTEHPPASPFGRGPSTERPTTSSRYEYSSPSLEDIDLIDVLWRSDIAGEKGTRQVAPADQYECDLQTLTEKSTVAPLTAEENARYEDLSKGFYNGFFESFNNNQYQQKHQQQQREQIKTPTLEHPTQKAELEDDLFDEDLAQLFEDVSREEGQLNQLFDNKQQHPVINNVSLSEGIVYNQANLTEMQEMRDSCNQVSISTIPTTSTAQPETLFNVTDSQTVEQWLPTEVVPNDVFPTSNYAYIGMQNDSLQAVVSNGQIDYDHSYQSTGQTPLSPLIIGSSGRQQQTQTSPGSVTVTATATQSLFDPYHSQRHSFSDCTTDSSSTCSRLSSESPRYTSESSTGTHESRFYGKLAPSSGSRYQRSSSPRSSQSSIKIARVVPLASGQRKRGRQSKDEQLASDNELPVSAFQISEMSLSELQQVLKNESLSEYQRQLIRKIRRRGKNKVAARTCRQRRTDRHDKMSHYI
It is filed as functional.

For assay [5], the target named is T5, Rac GTPase-activating protein 1 (Homo sapiens, UniProt Q9H0H5).
T5 sequence (Q9H0H5 whole entry): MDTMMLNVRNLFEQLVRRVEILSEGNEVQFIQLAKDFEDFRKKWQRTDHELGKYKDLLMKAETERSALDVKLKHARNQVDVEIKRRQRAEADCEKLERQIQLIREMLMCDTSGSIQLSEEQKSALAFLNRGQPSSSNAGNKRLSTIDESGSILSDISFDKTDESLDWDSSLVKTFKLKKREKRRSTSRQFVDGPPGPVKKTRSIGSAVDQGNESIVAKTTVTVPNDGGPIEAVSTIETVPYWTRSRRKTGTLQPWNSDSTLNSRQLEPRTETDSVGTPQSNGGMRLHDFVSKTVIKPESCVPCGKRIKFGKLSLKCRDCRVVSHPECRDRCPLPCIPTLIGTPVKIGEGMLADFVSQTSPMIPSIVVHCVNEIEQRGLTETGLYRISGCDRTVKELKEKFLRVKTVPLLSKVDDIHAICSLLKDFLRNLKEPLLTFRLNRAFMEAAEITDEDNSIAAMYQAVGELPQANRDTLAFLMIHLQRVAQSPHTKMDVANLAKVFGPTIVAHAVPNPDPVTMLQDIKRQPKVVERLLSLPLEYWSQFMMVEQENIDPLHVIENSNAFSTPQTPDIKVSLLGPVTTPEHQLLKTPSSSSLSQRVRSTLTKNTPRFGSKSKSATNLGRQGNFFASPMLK
In words: MgcRacGAP GTPase-activating activity inhibitors, confirmation, biochemical, ADP Hunter fluorescence, primary and confirmatory (AID 624330). The assay is classed as functional.

A short description of assay [6]: NIH:OVCAR-3 ovarian cancer cell cytotoxicity, dose response, PAX8 inhibitor project, plate reader, dry powder samples (AID 743044). It is filed as functional, cell-based.
For the next assay, the target named is Paired box protein Pax-8 (Homo sapiens, UniProt Q06710). In words: inhibitors of PAX8-driven TPO luciferase reporter, dose response, RMG-I cells, cherry-pick (AID 687027).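 Further: luciferase reporter driven by Pax8 target thyroperoxidase promoter measured by SteadyGlo luminescence.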 It is filed as functional, cell-based.
Paired box protein Pax-8, sequence (Q06710 whole entry): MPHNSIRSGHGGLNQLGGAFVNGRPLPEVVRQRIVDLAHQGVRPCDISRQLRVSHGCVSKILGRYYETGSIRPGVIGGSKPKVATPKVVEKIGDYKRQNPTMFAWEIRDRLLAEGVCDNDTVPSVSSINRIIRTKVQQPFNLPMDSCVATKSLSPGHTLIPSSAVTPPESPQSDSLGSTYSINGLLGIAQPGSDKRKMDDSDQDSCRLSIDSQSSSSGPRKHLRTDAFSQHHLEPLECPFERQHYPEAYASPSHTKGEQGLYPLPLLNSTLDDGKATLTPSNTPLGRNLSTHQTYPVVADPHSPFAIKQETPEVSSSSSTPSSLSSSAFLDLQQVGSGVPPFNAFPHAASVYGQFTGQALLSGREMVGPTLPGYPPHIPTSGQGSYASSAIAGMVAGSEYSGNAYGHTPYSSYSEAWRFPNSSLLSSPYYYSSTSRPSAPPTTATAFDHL

As a reminder, the IC50 is the concentration that inhibits the measured activity by half. For the molecule `CCCCCOc1ccc(NC(=O)CCCC(=O)O)cc1`, the IC50 on Leucine aminopeptidase was 11.3 µM (active).

As usually defined, the AC50 is the midpoint of the concentration-response curve, whichever way the signal moves. Consider `COc1cccc(=O)c2c(C)n(-c3ccc(C(=O)O)cc3)c(C)c12`, for which the AC50 in [1] is > 20 µM (inactive).

In the case of `O=C1C(=O)N(CCS(=O)(=O)c2ccccc2)c2ccc(F)cc21`, the AC50 in assay [1] was 8.09 µM (active).

With `C/C(=N\NC(=S)NC1CCCCC1)c1cccc(Br)c1`, the IC50 at Prothrombin was > 50 µM (inconclusive).

For orientation: EC50 means the concentration giving half of the maximal effect. Take `Cc1cc(C(=O)COC(=O)C2CC2)c(C)n1-c1ccc(F)cc1`: the AC50 was 0.585 µM (active) in assay [2] and 0.334 µM (active) in assay [4]. For the same molecule, the EC50 in assay [3] was 1.96 µM (active).

As to `CSc1nc(-c2ccco2)nn1C(=O)c1ccc(C)cc1`, the IC50 is > 100 µM (inactive) on Protein skinhead-1 and 0.16 µM (active) at Prothrombin.

Consider `CCCOP(=O)(c1ccc(N(C)C)cc1)C(O)c1ccncc1` (configuration not stated), for which the IC50 at Prothrombin is > 50 µM (not active).

Regarding `COc1ccccc1N1CCN(C(=O)CNC(=O)c2cn(-c3ccccc3OC)c(=O)c3ccccc23)CC1`, the IC50 on Prothrombin was 9.56 µM (active).

As for `Cc1ccc(C)c(NC(=O)C2CC=CCC2C(=O)O)c1` (configuration not stated), at Leucine aminopeptidase, the IC50 is 18.6 µM (active).

In the case of `CCS(=O)(=O)C1=NN2C(=N)/C(=C\c3ccc(O)c(OC)c3)C(=O)N=C2S1`, the figures for the IC50 (on Leucine aminopeptidase; in assay [5]) were 35.2 µM (active) and 37.2 µM (active), respectively.

Take `Cc1ccc(C(=O)CSc2nc(C)cc(C)c2C(N)=O)cc1`: at Prothrombin, the IC50 is on record as > 50 µM (not active).

Take `Cc1ccc(S(=O)(=O)N(C)C[C@@H]2Oc3cc(C#Cc4ccncc4)ccc3S(=O)(=O)N([C@H](C)CO)C[C@@H]2C)cc1`: the AC50 in assay [6] was 22.4 µM (active); at Paired box protein Pax-8, 6.03 µM (active).
